This note sets out measurements from ChEMBL document CHEMBL5226312, “Structural Evolution and Translational Potential for Agonists and Antagonists of Endosomal Toll-like Receptors” (J Med Chem, 2021).

For test [1], the system named is Splenocyte. As to the kind of experiment: Induction IFN production in C3H/HeJ mouse Splenocytes measured after 18 hrs. In kind it is functional. The settings on record: read-out: MEC.
The nature of test [2]: Antagonist activity at mouse CpG-oligonucleotide in mouse WEHI-231 cells assessed as inhibition of CpG-oligonucleotide induced thymidine uptake preincubated for 16 hrs followed by 3H-thymidine addition and measured after 4 hrs in presence of anti-serum IgM by radioactivity analysis. The test is classed as cell-based. The settings on record: WEHI231.
The target in test [3] is T1, Toll-like receptor 8 (Homo sapiens, UniProt Q9NR97).
T1 sequence (Q9NR97 whole entry): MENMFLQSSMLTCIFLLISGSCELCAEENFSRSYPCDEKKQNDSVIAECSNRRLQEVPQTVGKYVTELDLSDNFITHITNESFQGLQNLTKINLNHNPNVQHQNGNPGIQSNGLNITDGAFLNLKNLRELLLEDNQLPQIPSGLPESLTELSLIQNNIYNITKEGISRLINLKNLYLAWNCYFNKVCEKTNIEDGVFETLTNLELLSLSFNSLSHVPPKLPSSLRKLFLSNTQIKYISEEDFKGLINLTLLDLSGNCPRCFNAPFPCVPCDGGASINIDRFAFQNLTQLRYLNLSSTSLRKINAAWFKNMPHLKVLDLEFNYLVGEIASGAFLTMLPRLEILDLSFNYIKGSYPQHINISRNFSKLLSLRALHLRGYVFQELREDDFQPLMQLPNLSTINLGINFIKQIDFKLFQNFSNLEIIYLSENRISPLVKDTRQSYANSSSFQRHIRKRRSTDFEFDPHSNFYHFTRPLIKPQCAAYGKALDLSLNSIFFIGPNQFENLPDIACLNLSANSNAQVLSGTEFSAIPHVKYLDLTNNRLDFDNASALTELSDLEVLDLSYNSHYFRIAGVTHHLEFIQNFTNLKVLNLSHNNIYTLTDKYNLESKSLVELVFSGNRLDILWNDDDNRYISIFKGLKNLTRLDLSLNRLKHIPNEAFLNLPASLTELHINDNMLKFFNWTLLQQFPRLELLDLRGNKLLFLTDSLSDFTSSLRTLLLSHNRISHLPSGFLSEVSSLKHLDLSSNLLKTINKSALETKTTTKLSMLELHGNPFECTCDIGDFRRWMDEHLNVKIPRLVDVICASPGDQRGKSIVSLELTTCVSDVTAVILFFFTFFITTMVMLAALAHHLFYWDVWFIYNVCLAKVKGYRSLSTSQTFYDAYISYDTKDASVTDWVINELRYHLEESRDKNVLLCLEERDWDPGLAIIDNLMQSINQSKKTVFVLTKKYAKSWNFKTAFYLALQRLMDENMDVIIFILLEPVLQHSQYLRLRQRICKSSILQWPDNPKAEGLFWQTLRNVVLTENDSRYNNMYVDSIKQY
As to the kind of experiment: Agonist activity at human TLR8 stably expressed in human HEK-Blue hTLR8 cells assessed as activation of NFkappaB by SAP reporter gene based spectrophotometric assay. In kind it is cell-based.

A short description of test [4]: Antagonist activity at monkey TLR7 expressed in Drosophila S2 cells by ITC analysis. Also on record: species or system Macaca mulatta.
A short description of test [5]: Antagonist activity at mouse CpG-oligonucleotide in mouse WEHI-231 cells assessed as inhibition of CpG-oligonucleotide induced thymidine uptake in presence of anti-serum IgM. In kind it is cell-based. To be noted: WEHI231.
Test [6] has as its target T2, Toll-like receptor 7 (Homo sapiens, UniProt Q9NYK1).
T2 sequence (Q9NYK1 whole entry): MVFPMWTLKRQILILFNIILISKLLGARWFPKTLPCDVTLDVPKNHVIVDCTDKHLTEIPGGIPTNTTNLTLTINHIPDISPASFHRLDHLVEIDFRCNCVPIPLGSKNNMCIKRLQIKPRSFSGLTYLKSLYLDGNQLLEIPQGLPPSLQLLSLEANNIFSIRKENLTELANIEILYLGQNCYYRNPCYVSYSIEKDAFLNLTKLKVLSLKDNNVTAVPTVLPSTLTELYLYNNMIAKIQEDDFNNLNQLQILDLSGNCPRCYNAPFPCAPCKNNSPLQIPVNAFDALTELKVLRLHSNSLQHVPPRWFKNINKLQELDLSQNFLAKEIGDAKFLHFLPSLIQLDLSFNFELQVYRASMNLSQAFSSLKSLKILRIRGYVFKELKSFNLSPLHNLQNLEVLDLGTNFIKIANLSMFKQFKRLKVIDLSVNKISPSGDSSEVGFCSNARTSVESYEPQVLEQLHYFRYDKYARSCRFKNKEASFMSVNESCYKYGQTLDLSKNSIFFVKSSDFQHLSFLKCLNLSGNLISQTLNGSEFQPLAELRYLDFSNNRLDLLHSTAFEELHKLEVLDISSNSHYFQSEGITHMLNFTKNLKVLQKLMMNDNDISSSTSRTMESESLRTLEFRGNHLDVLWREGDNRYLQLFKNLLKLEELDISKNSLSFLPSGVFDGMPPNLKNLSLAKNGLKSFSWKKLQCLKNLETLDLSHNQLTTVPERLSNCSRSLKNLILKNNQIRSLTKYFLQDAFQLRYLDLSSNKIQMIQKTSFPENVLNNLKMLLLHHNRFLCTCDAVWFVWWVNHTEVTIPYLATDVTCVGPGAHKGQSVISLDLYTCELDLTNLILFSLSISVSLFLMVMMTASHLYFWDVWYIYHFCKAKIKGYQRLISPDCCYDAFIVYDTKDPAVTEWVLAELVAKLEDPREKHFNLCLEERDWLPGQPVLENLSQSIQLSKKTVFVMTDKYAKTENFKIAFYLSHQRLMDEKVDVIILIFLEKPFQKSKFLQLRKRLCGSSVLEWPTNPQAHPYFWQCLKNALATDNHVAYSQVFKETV
As to the kind of experiment: Agonist activity at human TLR7.

pEC50, pIC50: −log10 of the molar value.

`CCCCOc1nc(N)c2[nH]c(=O)n(Cc3ccccc3)c2n1`: the minimal effective concentration in test [1] turned out to be 0.001 µM.
As to `CN(C)CCNc1cc(-c2ccc(CN3CCN(C)CC3)cc2)nc2ccccc12`, in test [2], the pEC50 was 8.15.
Regarding `CN(C)CCNc1cc(-c2ccc(N3CCN(C)CC3)cc2)nc2ccccc12`, the negative logarithm of the EC50 (pEC50) in test [2] is 9.12.
In the case of `CN1CCN(Cc2ccc(-c3cc(N4CCN(C)CC4)c4ccccc4n3)cc2)CC1`, the pEC50 in test [2] is 7.24.
`CCCCOc1nc(N)c2nc(S)n(Cc3ccccc3)c2n1`: in test [1], the minimal effective concentration was found to be 0.001 µM.
As for `CCCCCc1nc(N)c2[nH]c(=O)n(Cc3ccccc3)c2n1`, the minimal effective concentration in test [1] was 0.01 µM.
Consider `CCCCc1nc2c(N)nc3ccccc3c2s1`, for which, in test [3], the pEC50 was 6.39.
As to `CCOc1nc(C)c2nc(-c3cncc(F)c3)n(Cc3ccc(CN4C[C@H]5C[C@@H]4CN5C)cc3)c2n1`, the pIC50 in test [4] is 7.60.
Still for that read-out and setting: as for `CCOc1nc(N)c2nc(-c3cncc(F)c3)n(Cc3ccc(CN4C[C@H]5C[C@@H]4CN5C)cc3)c2n1`, the figure is 7.60.
Consider `CN(C)CCNc1cc(-c2ccc3ccccc3c2)nc2ccccc12`, for which the pEC50 in test [5] is 8.04.
Same read-out and setting: as for `CN1CCN(Cc2cc(Nc3cc(-c4ccc5ccccc5c4)nc4ccccc34)cc(CN3CCN(C)CC3)c2O)CC1`, the figure is 9.62; as for `CCN(CC)CCCC(C)Nc1cc(-c2ccccc2)nc2ccccc12` (centres undefined), 7.29; as for `CCN(CC)CCCC(C)Nc1ccnc2cc(Cl)ccc12` (centres undefined) [CHLOROQUINE], 6.96.
The molecule `CC(C)Cn1cnc2c(N)nc3ccccc3c21` [IMIQUIMOD] gave a pEC50 in test [6] of 5.66.
